This is an account of results in ChEMBL document CHEMBL1201862, “PubChem BioAssay data set” (2004).

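How tested: cells in 96-well plates exposed to compound for 48 hours at five concentrations. Here, GI50 denotes the concentration required for 50% inhibition of growth.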 Active and inactive are the calls of the source. No stated cut-off is given here; in the data, active = GI50 up to about 1.1 µM and inactive = higher.

Assay in all cases: inhibition of tumour cell growth, NCI panel, 48 h
Experiment [1] concerns ACHN.
Experiment [2] relates to COLO 205.
Experiment [3] has as its system DU-145.
The subject of experiment [4] is EKVX.
In experiment [5] the test system is HCT-15.
Experiment [6] deals with LOX IMVI.
Experiment [7] concerns M14.
In experiment [8] the test system is MDA-MB-231.
For experiment [9], the system named is NCI-H226.
For experiment [10], the system named is NCI-H23.
Experiment [11] deals with NCI-H460.
In experiment [12] the test system is NCI/ADR-RES.
Experiment [13] deals with RPMI-8226.
The test system of experiment [14] is RXF 393.
The test system of experiment [15] is SK-MEL-28.
Experiment [16] has as its system SN12C.
In experiment [17] the test system is SNB-75.
The test system of experiment [18] is SW-620.
Experiment [19] relates to T47D.
Experiment [20] has as its system CAKI-1.

In the case of `c1ccc2c3nnc(c2c1)SCCCSc1nnc(c2ccccc12)SCCCS3`, the GI50 was 72.3 µM (inactive) in experiment [1]; > 100 µM (inactive) in experiment [2]; 33.7 µM (inactive) in experiment [3]; > 100 µM (inactive) in experiment [4]; more than 100 µM in experiment [5]; > 100 µM (inactive) in experiment [6]. Besides, the GI50 in experiment [7] is 90.8 µM (inactive); in [8] it was 17.2 µM (inactive); in experiment [9], 24.3 µM (inactive); in experiment [10], 71.1 µM (inactive); in experiment [11], 34.4 µM (inactive); in [12] it was 33.4 µM (inactive). Also, the GI50 was > 100 µM (inactive) in experiment [13]; 33.3 µM (inactive) in [14]; 44.7 µM (inactive) in [15]; > 100 µM (inactive) in experiment [16]; 25.2 µM (inactive) in experiment [17]; > 100 µM (inactive) in experiment [18]. Besides, in experiment [19], the GI50 is > 100 µM (inactive).

For the molecule `Cc1cn(CC2=NCCCN2)c(=O)[nH]c1=O`, the GI50 is > 100 µM (inactive) in experiment [1]; > 100 µM (inactive) in [2]; > 100 µM (inactive) in [3]; > 100 µM (inactive) in experiment [4]; more than 100 µM in experiment [5]; > 100 µM (inactive) in experiment [6]. Further, the GI50 in experiment [7], in experiment [8], in experiment [9], in [10], in [11] and in [12] was > 100 µM (inactive) throughout. Besides, the GI50 in experiment [13], in [14], in experiment [15], in [16], in experiment [17] and in experiment [18] was > 100 µM (inactive) in each case. In experiment [19], the GI50 was > 100 µM (inactive).

For `COc1cc(OC)c(C/C=C/c2ccccc2)cc1O`, the GI50 in experiment [1] is 25.7 µM (inactive); in [20], 21.5 µM (inactive); in [2], 22 µM (inactive); in [3], 17.1 µM (inactive); in [4] it was 17.2 µM (inactive); in experiment [5] it was 16.5 µM. Also, the GI50 was 16 µM (inactive) in experiment [6]; 19 µM (inactive) in experiment [7]; 17.9 µM (inactive) in [8]; 17.9 µM (inactive) in experiment [9]; 17.4 µM (inactive) in experiment [10]; 17.3 µM (inactive) in experiment [11]. The GI50 in experiment [12] was 14.5 µM (inactive); in experiment [13], 14.9 µM (inactive); in experiment [15], 16.6 µM (inactive); in experiment [16], 16 µM (inactive); in experiment [17] it was 14.6 µM (inactive); in [18] it was 18.9 µM (inactive). The GI50 in experiment [19] is 10.6 µM (inactive).

For `Nc1ncn2c(n1)nc1ccccc12`, the GI50 in experiment [1] is > 100 µM (inactive); in experiment [20] it was > 100 µM (inactive); in experiment [2] it was > 100 µM (inactive); in experiment [3], > 100 µM (inactive); in [4], 54.8 µM (inactive); in [5], more than 100 µM. In addition, the GI50 in experiment [7], in experiment [8], in experiment [9], in experiment [10], in experiment [11] and in [12] was > 100 µM (inactive) in each case. Further, the GI50 in experiment [13] is > 100 µM (inactive); in [14], 18.6 µM (inactive); in experiment [15], > 100 µM (inactive); in experiment [16] it was > 100 µM (inactive); in [17], 3.51 µM (inactive); in experiment [18], > 100 µM (inactive). In addition, the GI50 in [19] was > 100 µM (inactive).

As for `CC(C)(C)OC(=O)NC1CCCC1C(=O)C1=CCCC1` (configuration not stated), the GI50 is > 100 µM (inactive) in experiment [1]; > 100 µM (inactive) in experiment [2]; > 100 µM (inactive) in experiment [3]; 59 µM in experiment [5]; 50.6 µM (inactive) in experiment [6]; > 100 µM (inactive) in experiment [7]. Besides, the GI50 was 82.8 µM (inactive) in [8]; > 100 µM (inactive) in experiment [9]; 85.7 µM (inactive) in experiment [10]; > 100 µM (inactive) in [11]; > 100 µM (inactive) in experiment [12]; > 100 µM (inactive) in experiment [13]. The GI50 in experiment [14] was > 100 µM (inactive); in experiment [15], > 100 µM (inactive); in experiment [16], 53.3 µM (inactive); in experiment [17], 72.9 µM (inactive); in experiment [18], > 100 µM (inactive); in [19], 28.6 µM (inactive).

As to `CC1(C)O[C@@H]2[C@@H](COC(C)(C)O[C@H]2C2SCCCS2)O1`, the GI50 in experiment [1] was > 100 µM (inactive); in [20], > 100 µM (inactive); in experiment [2], > 100 µM (inactive); in experiment [3], > 100 µM (inactive); in experiment [5], more than 100 µM; in experiment [7], > 100 µM (inactive). Further, the GI50 in experiment [8], in experiment [10], in experiment [11], in experiment [12], in experiment [13] and in experiment [14] was > 100 µM (inactive) each time. In addition, the GI50 in [15], in experiment [16], in [18] and in experiment [19] was > 100 µM (inactive) each time.

Regarding `CN(C)/N=N/c1nc2c(c(=O)n(C)c(=O)n2C)n1CC(O)CO` (configuration not stated), the GI50 in experiment [1] is > 100 µM (inactive); in experiment [20], > 100 µM (inactive); in experiment [2] it was > 100 µM (inactive); in experiment [3], > 100 µM (inactive); in experiment [4] it was > 100 µM (inactive); in [5], more than 100 µM. In addition, the GI50 in experiment [7], in [8], in [9], in experiment [10], in experiment [11] and in experiment [12] was > 100 µM (inactive) each time. Further, the GI50 in experiment [13], in [14], in experiment [15], in experiment [16], in experiment [17] and in experiment [18] was > 100 µM (inactive) each time. The GI50 in experiment [19] is 38.7 µM (inactive).

In the case of `Nc1c(-c2nc3ccccc3s2)c2ccc([N+](=O)[O-])cc2c(=O)n1-c1cccc(C(=O)O)c1`, the GI50 is 33 µM (inactive) in experiment [1]; 27.5 µM (inactive) in experiment [20]; 63.5 µM (inactive) in [2]; 23.3 µM (inactive) in [3]; 27.4 µM in experiment [5]; 31.8 µM (inactive) in [6]. Besides, the GI50 is 17.9 µM (inactive) in [8]; 23 µM (inactive) in [9]; 25.4 µM (inactive) in experiment [10]; 27 µM (inactive) in experiment [11]; 33.1 µM (inactive) in [12]; 21.4 µM (inactive) in experiment [15]. Moreover, the GI50 in experiment [16] is 30.3 µM (inactive); in experiment [17] it was 30.8 µM (inactive); in experiment [18], 29.1 µM (inactive); in experiment [19] it was 21 µM (inactive).

Take `O=[N+]([O-])c1ccc(C(c2c[nH]c3ccccc23)c2c[nH]c3ccccc23)cc1`: the GI50 in experiment [1] was 8.05 µM (inactive); in experiment [2], 8.13 µM (inactive); in experiment [3], 4.47 µM (inactive); in experiment [4], 19.4 µM (inactive); in [5], 11 µM; in experiment [6], 11.1 µM (inactive). In addition, the GI50 is 11.7 µM (inactive) in [7]; 12.4 µM (inactive) in experiment [8]; 10.7 µM (inactive) in experiment [9]; 7.1 µM (inactive) in experiment [10]; 3.57 µM (inactive) in experiment [11]; 11 µM (inactive) in experiment [12]. For the same molecule, the GI50 in [13] was 1.45 µM (inactive); in experiment [15], 18.5 µM (inactive); in experiment [16], 14.4 µM (inactive); in experiment [17], 4.8 µM (inactive); in experiment [18], 12.4 µM (inactive); in experiment [19], 0.653 µM (active).

Regarding `CCOP(=O)(OCC)/C(C#N)=C/c1ccc(-c2cc(C(F)(F)F)cc(C(F)(F)F)c2)o1`, the GI50 in [1] was 12.7 µM (inactive); in [2] it was 12.4 µM (inactive); in experiment [3], 14.6 µM (inactive); in experiment [4], 20.7 µM (inactive); in experiment [5] it was 6.38 µM; in experiment [6], 3.34 µM (inactive). Further, the GI50 is 10.2 µM (inactive) in experiment [7]; 13.7 µM (inactive) in experiment [8]; 14.8 µM (inactive) in experiment [9]; 13 µM (inactive) in experiment [10]; 6.38 µM (inactive) in experiment [11]; 9.82 µM (inactive) in [12]. In addition, the GI50 is 3.59 µM (inactive) in [13]; 16.9 µM (inactive) in experiment [15]; 15.1 µM (inactive) in experiment [16]; 10.5 µM (inactive) in [17]; 14.9 µM (inactive) in experiment [18]; 11.9 µM (inactive) in [19].

As for `Clc1ccc(COC(Cn2ccnc2)c2ccc(Cl)cc2Cl)c(Cl)c1` (configuration not stated) [MICONAZOLE], the GI50 was 15 µM (inactive) in [1]; 13.6 µM (inactive) in experiment [20]; 15.7 µM (inactive) in experiment [3]; 14.3 µM (inactive) in experiment [4]; 10.8 µM in experiment [5]; 12.7 µM (inactive) in experiment [6]. The GI50 in [7] is 12.6 µM (inactive); in experiment [8], 12.6 µM (inactive); in experiment [10], 11 µM (inactive); in experiment [11], 17.5 µM (inactive); in [12], 6.1 µM (inactive); in experiment [13], 8.65 µM (inactive). Moreover, the GI50 in experiment [15] was 17.1 µM (inactive); in [16], 13.6 µM (inactive); in experiment [18], 12.1 µM (inactive); in experiment [19], 7.89 µM (inactive).
